How the values were obtained:
143B cells = test: Cell cycle analysis (PI staining, flow cytometry), 143B; format: cell-based, human
Protocol: (§1) Tumor cells (T24, UM-UC-3, 143B, BxPC-3) in logarithmic growth phase were inoculated into 70 mm culture dishes. After 70% confluency was reached, medium was replaced and treated with: compound 8-1j, ferroptosis inducer Erastin, or cell cycle blocker paclitaxel (PTX) for a specified duration. Post-incubation, cells were trypsinized, collected, centrifuged, and washed 2 times with pre-cooled phosphate-buffered saline (PBS). Pre-cooled 75% ethanol was added dropwise during vortexing for fixation at −20° C. overnight. After centrifugation (10 min), supernatant was discarded. Cells were rewashed with PBS and centrifuged. Following kit instructions (Beyotime, C1052, China), 0.5 mL staining buffer, 25 μL PI (propidium iodide) stain (20×), and 10 μL RNase A (50×) were mixed per sample. Cells were resuspended in PI staining solution and incubated at 37° C. in dark for 30 min (gentle shaking every 10 min). Samples were filtered through 200-mesh filters, transferred into a flow tube, and analyzed via BD FACSVerse flow cytometer. All experiments were conducted in 3 repeats. Compounds 8-2h and 8-2j were evaluated identically.

T24 cells = test: Cell cycle analysis (PI staining, flow cytometry), T24; format: cell-based, human
Protocol: as §1

[1] = tested on: FoxM1, KIF20A, Nrf2, xCT, GPx4, FTH1, HO-1, IRP2, CD71 in bladder cancer T24 cells; test: Western blot of cell cycle- and ferroptosis-related proteins; format: cell-based, human
Protocol: Experimental method: bladder cancer T24 cells in logarithmic growth phase were inoculated into 100 mm culture dishes. After 70% confluency was reached, medium was replaced and treated with compound 8-1j or ferroptosis inhibitor Fer-1. Post-co-incubation, cells were trypsinized, collected, and washed with pre-cooled PBS. 0.2 mL of RIPA cell lysis buffer was added to each tube, mixed thoroughly, and transferred to a 1.5 mL centrifuge tube, and lysed on ice with agitation for 30 min. Lysates were centrifuged at 12,000 rpm (4° C., 10 min) to collect supernatants. Supernatants were mixed with 5×SDS-PAGE protein loading buffer, heated at 95° C. for 7 min, and stored at −80° C. SDS-PAGE (sodium dodecyl sulfate-polyacrylamide gel electrophoresis) was conducted at 80 V until entry into separating gel, then at 120 V until bromophenol blue reached the gel bottom. Gels were cut according to molecular weight indicated by Marker, transferred to membranes, blocked, and then immune reaction was performed. Protein bands were visualized by an enhanced chemiluminescence (ECL) detection system. Band densities were analyzed using ImageJ software. Three repeated experiments were conducted.

human osteosarcoma 143B = test: 143B tumor-bearing nude mouse model; format: in vivo, nude mice; settings: 40 mg/kg oral gavage, every 2 d, 42 d
Protocol: (§2) Experimental method: bladder cancer J82 cells in logarithmic growth phase were trypsinized, collected, and then centrifuged, and resuspended in serum-free DMEM medium after discarding an original medium. Cell density was adjusted, and 0.2 mL cell suspension was subcutaneously inoculated into 5-week-old BALB/c-nu mice (sex-balanced, 18-20 g) under a laminar flow clean bench. Post-inoculation, bleeding at injection sites was monitored. When tumors reached 50-80 mm^3, nude mice with good tumor growth status were randomized into 5 groups (n=6/group) for intraperitoneal administration. Tumor volume and body weight were recorded on Day 0. […] Dosing occurred every 2 d for 42 d. After administering the drug, mice were monitored for diarrhea, anorexia, lethargy, and allergic reactions (e.g., pruritus). The body weight of nude mice was measured every 2 days, and the long and short diameters of the tumors in nude mice were measured by using a vernier caliper, then the recording was finished.
Construction of the human osteosarcoma 143B tumor-bearing nude mouse model followed similar procedures, with identical dosing frequency but administration route changed to oral gavage. Specifically: When tumors reached 60-90 mm^3, mice were randomized into 4 groups (n=6). […]

bladder cancer J82 cells = test: J82 tumor-bearing nude mouse model; format: in vivo, BALB/c-nu mice
Protocol: as §2
0.9% normal saline was added thereto to obtain a solution, which was sterilized under UV light for 30 min. Administration volume was 10 mL/kg per mouse. The preparation contained PEG400 and 0.9% normal saline at a 3:1 volume ratio, with 2% (v/v) DMA.

[2] = tested on: human pancreatic cancer BxPC-3; test: BxPC-3 tumor-bearing nude mouse model; format: in vivo, nude mice; set-up: Tumor growth control, high dose: dose or concentration left out as unconfirmed
BxPC-3 cells = test: Cell cycle analysis (PI staining, flow cytometry), BxPC-3; format: cell-based, human
Protocol: as §1

[3] = 20 mg/kg intraperitoneal, every 2 d for 42 d

| SMILES | Cell cycle arrest phase (143B cells; 143B cells (FIG. 46)) | Effect of co-administration with PTX on cell cycle (143B cells; 143B, with PTX) | Effect of co-administration with PTX on cell cycle (T24 cells; T24, with PTX) | Cell cycle arrest phase (T24 cells; T24 cells (FIG. 44)) | Ferroptosis-related proteins HO-1, IRP2, and CD71 expression [1] | FoxM1, KIF20A, Nrf2, xCT, GPx4, and FTH1 expression ([1]; concentration-dependently) | Tumor inhibition (human osteosarcoma 143B) | Body weight and tolerability observations (bladder cancer J82 cells; [3]) | Tumor growth rates vs. vehicle control and equi-dose positive control (bladder cancer J82 cells; [3]) | Anti-tumor efficacy compared with 9g (A-2) (bladder cancer J82 cells; at 20 mg/kg intraperitoneal) | Tumor growth control, high dose [2] | Tumor after continued administration ([2]; high dose, oral gavage, up to 42 d) | Toxicity observations ([2]; oral gavage, gemcitabine 24 mg/kg, 8-2h 12, 24, 36 mg/kg) | Cell cycle arrest phase, high concentration (BxPC-3 cells; high concentration (>6 μM)) | Cell cycle arrest phase, low concentration (BxPC-3 cells; low concentration (e.g., 3 μM)) | Effect of co-administration with PTX on cell cycle (BxPC-3 cells; with PTX) |
| --- | --- | --- | --- | --- | --- | --- | --- | --- | --- | --- | --- | --- | --- | --- | --- | --- |
| COc1cc2ncnc(NCc3cccc(NC(=O)Nc4ccc(C(C)(C)C)cc4)c3)c2cc1OCCCCCCN1CCN(CCN2CCOCC2)CC1 [Compound 8-1j, N-(3-(((7-methoxy-6-((6-(4-(2-morpholinoethyl)piperazin-1-yl)hexyl)oxy)quinazolin-4-yl)amino)methyl)phenyl)-N′-(4-tert-butylphenyl)urea] | arrest cell cycle at G2/M phase | Synergistic effects | Synergistic effects | arrest cell cycle at G2/M phase | upregulating | significantly downregulates | significantly stronger tumor inhibition than positive control Apat | Mild weight loss occurs without anorexia, diarrhea, or pruritus | significantly lower | surpassed that of 9g (A-2) |  |  |  |  |  |  |
| CCc1cccc(CC)c1NC(=O)Nc1cccc(CNc2ncnc3cc(OC)c(OCCCCCCN4CCC(CN5CCN(c6ccccn6)CC5)CC4)cc23)c1 [Compound 8-2h, N-(3-(((7-methoxy-6-((6-(4-((4-(pyridin-2-yl)piperazin-1-yl)methyl)piperidin-1-yl)hexyl)oxy)quinazolin-4-yl)amino)methyl)phenyl)-N′-(2,6-diethylphenyl)urea] |  |  |  |  |  |  |  |  |  |  | controls tumor growth by Day 28 | significantly shrank | no toxicity | G2/M arrest | G0/G1 arrest | Synergistic effects |
